Each structure is given as a SMILES string. Converted amounts (≈) assume the structure as drawn. “Also recorded” adds a separate entry of the source. Read-outs that look alike come from different tables or passages of the source. Where only a bound is given, the exact number is not on record here.

Data set [1] concerns synthetic DNA dodecamer duplex d(CGCGAATTCGCG)2. As to the kind of experiment: DNA binding by differential scanning calorimetry (DSC). In general terms: Differential scanning calorimetry records heat flow against a reference as temperature is scanned.
Data set [2] concerns Mycobacterium tuberculosis.
The target of data set [3] is T1, S. aureus UPPS (Staphylococcus aureus, UniProt P60477).
T1 construct: His-tag (pET-32 Xa/LIC vector tag) (N, cleaved yes); made in house; host or cells: E. coli BL21 (DE3)
T1 sequence (P60477 1-256): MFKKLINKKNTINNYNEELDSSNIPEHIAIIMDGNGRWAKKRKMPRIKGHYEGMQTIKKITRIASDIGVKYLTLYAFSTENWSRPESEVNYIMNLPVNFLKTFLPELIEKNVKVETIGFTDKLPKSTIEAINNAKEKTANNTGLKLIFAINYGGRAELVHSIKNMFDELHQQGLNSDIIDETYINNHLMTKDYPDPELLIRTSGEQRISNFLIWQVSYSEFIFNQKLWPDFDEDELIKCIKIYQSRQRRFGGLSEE
As to the kind of experiment: biochemical. On the procedure:
(§1) Methods. EcUPPS and SaUPPS were expressed and purified as described previously (Durrant et al., Chem Biol Drug Des 2011, 78(3):323-332). UPPS inhibition assays were carried out as described previously, and UPPS/inhibitor crystals were obtained via soaking as described previously (Guo et al., Proc Natl Acad Sci USA 2007, 104(24):10022-10027). Structure determinations and refinements were carried out as described below in Example 3. […] Full synthesis and characterization details for all compounds investigated crystallographically are provided in Example 1 above. In vivo experiments used female BALB/c mice infected intraperitoneally with S. aureus (USA200), as described in detail in Example 3 below. Bacterial cell growth inhibition assays were carried out as described previously (Zhang et al., ACS Med Chem Lett 2012, 3(5):402-406).
(§2) UPPS Inhibition Assays. E. coli UPPS and S. aureus UPPS inhibition assays were carried out as described previously (Durrant et al., Chem Biol Drug Des 2011, 78(3):323-332). […] The IC50 values were obtained by fitting the inhibition data to a standard rectangular hyperbolic dose-response function in GraphPad PRISM 4.0 software (Graphpad Software, San Diego, Calif.). […] IPP and 0.01% Triton X-100.

Data set [4] concerns E. coli. As to the kind of experiment: E. coli cell growth inhibition. Format: cell-based. Particulars: for MIC90: Escherichia coli. On the procedure:
(§3) Methods. EcUPPS and SaUPPS were expressed and purified as described previously (Durrant et al., Chem Biol Drug Des 2011, 78(3):323-332). UPPS inhibition assays were carried out as described previously, and UPPS/inhibitor crystals were obtained via soaking as described previously (Guo et al., Proc Natl Acad Sci USA 2007, 104(24):10022-10027). Structure determinations and refinements were carried out as described below in Example 3. For the eleven structures reported, the resolution was on average 1.88 Å (±0.29 Å) and Rfree was on average 24.6% (±3.9%). Full synthesis and characterization details for all compounds investigated crystallographically are provided in Example 1 above. In vivo experiments used female BALB/c mice infected intraperitoneally with S. aureus (USA200), as described in detail in Example 3 below. Bacterial cell growth inhibition assays were carried out as described previously (Zhang et al., ACS Med Chem Lett 2012, 3(5):402-406).
(§4) Cell growth inhibition. The growth of S. aureus (USA300 strain) and determination of MIC values were as described previously (Molohon et al., ACS chemical biology 2011, 6(12):1307-1313). E. coli growth and construction of isobolograms were also carried out basically as described previously (Leon et al., J Med Chem 2006, 49(25):7331-7341).

For data set [5], the target named is T2, E. coli UPPS (Escherichia coli, UniProt P60472).
T2 construct: His-tag (cleaved yes); made in house; host or cells: E. coli BL21 (DE3)
T2 sequence (P60472 whole entry): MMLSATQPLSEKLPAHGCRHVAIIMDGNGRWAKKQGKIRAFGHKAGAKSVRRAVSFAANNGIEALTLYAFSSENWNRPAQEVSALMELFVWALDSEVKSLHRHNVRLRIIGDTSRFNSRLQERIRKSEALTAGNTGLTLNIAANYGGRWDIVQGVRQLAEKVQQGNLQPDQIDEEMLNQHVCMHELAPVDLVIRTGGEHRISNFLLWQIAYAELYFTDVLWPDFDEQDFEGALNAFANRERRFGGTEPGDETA
As to the kind of experiment: E. coli UPPS inhibition assay. It counts as biochemical. On the procedure: as §1, §2

Data set [6] has as its system S. aureus (USA300 strain). As to the kind of experiment: S. aureus cell growth inhibition. Format: cell-based. Particulars: USA300, MRSA strain; for MIC90: Staphylococcus aureus. The protocol: as §3, §4
In data set [7] the target is UPPS. As to the kind of experiment: UPPS inhibition, enzyme species not given. It counts as biochemical. On the procedure: as §1, §2
Data set [8] has as its system S. aureus USA200 Sanger 252 (MRSA) strain.

For `O=C(Nc1cccc(C2=NCCCN2)c1)c1ccc(-c2ccc(C(=O)Nc3cccc(C4=NCCCN4)c3)cc2)cc1` [BPH-1503], the “DNA binding (in words)” value in data set [1] is on record as “binds to DNA; also recorded: strong DNA binding”. In addition, the “shift in Tmax of DNA melting (DSC)” value in data set [1] (1 mM DNA duplex, 1 mM compound) was about 10 °C. The “concentration inhibiting Mycobacterium tuberculosis” value in data set [2] is 1 µM.
As usually defined, the MIC90 is the lowest concentration that inhibits either 90% of growth or 90% of the strains tested, depending on the study. A high value points to weaker potency. With `NCCc1cc(Br)cc(C#Cc2cccc(C#Cc3cc(Br)cc(CCN)c3)c2)c1` [Compound 18, 2,2′-((1,3-phenylenebis(ethyne-2,1-diyl))bis(3-bromo-5,1-phenylene))diethanamine], the IC50 in data set [3] came to 1400 nM; in data set [5] (read-out: E. coli UPPS IC50), 6100 nM. In addition, the MIC90 in data set [4] was 8 µg/mL (≈ 15.3 µM); in data set [6], over 32 µg/mL.
On to `CCCCCCCCCCCCOc1cccc(O)c1C(=O)O` [Compound 11, (Dodecyloxy)-6-hydroxybenzoic acid], for which the IC50 was found to be 1700 nM in data set [3] and 2200 nM in data set [5]. The MIC90 in data set [4] was over 32 µg/mL.
`O=C(Nc1cccc(C2=NCCN2)c1)c1ccc(-c2ccc(C(=O)Nc3cccc(C4=NCCN4)c3)cc2)cc1` [Compound 17, N^4, N^4′-bis(3-(4,5-dihydro-1H-imidazol-2-yl)phenyl)-[1,1′-biphenyl]-4,4′-dicarboxamide]: the MIC90 in data set [4] was found to be 4 µg/mL (≈ 7.57 µM); in data set [6], 0.25 µg/mL (≈ 0.473 µM). For the same compound, the values for the IC50 in data set [7] (read-out: UPPS IC50) and in data set [7] (read-out: UPPS inhibition) were 100 nM and about 100 nM, respectively. Besides, the “adverse reactions in treated mice” value in data set [8] (10 mg/kg intraperitoneally once daily, 3 doses) is “no apparent adverse reactions”. The mice survived in data set [8] (10 mg/kg intraperitoneally once daily, 3 doses, pooled results of 2 experiments) was 20/20. Besides, the “activity in mouse model of infection (in words)” value in data set [8] (10 mg/kg once daily, 3 doses total) is recorded as “clear therapeutic activity; also recorded: No mice in the group treated once daily with 10 mg/kg of 17 (3 doses total) died during either experiment”. Besides, the “concentration inhibiting Mycobacterium tuberculosis” value in data set [2] was 0.4 to 0.5 µM.
Take `O=P(O)(O)C(O)(Cc1cccc(-c2cccc3c2oc2ccccc23)c1)P(=O)(O)O` [Compound 5, reference compound]: the values for the IC50 in data set [3] and in data set [5] (read-out: E. coli UPPS IC50) were 350 nM and 280 nM, respectively. Besides, the “E. coli MIC90” value in data set [4] was over 32 µg/mL. In addition, the “S. aureus MIC90” value in data set [6] was over 32 µg/mL.
In the case of `O=C(Nc1cccc(C2=NCCN2)c1)c1ccc(C(=O)Nc2cccc(C3=NCCN3)c2)c([N+](=O)[O-])c1` [Compound 16, N^1, N^4-bis(3-(4,5-dihydro-1H-imidazol-2-yl)phenyl)-2-nitroterephthalamide], the IC50 worked out at 4900 nM in data set [3] and 4800 nM in data set [5]. In addition, the MIC90 was 8 µg/mL (≈ 16.1 µM) in data set [4] and over 32 µg/mL in data set [6].
For `CCCCCCCCOc1cccc(COc2ccc(Br)cc2P(=O)(O)O)c1` [Compound 13, (5-bromo-2-((3-(octyloxy)benzyl)oxy)phenyl)phosphonic acid], the IC50 in data set [3] turned out to be 2500 nM; in data set [5], 920 nM. The MIC90 is over 32 µg/mL in data set [4] and 32 µg/mL (≈ 67.9 µM) in data set [6].
For `CCCCCCCCCCOc1cccc(C(=O)Nc2ccc([N+](=O)[O-])cc2C(=O)O)c1` [Compound 12, 2-(3-(Decyloxy)benzamido)-5-nitrobenzoic acid] the same measures were 490 nM, 3000 nM, over 32 µg/mL and over 32 µg/mL.

The values above are taken from patent publication US9951097B2, “Antibacterial compounds targeting isoprenoid biosynthesis” (priority 2012, dated 2018).
